From patent publication US5506354A, “Imidazolylpiperazinyl steroids” (The Upjohn Company, priority 1992, dated 1996)
Structures can show the parent of a compound that is named as a salt.

Key:
[1] = tested on: mouse head injury; experiment: in vivo mouse head injury procedure of Hall (1 hr neurological recovery, grip test); conditions: statistically significant (p<0.05)
[2] = tested on: arachidonic acid; experiment: Arachidonic Acid Antagonism Assay (AAAA), LD50 of sodium arachidonate; type: in vivo, Charles River male CF-1 mice; conditions: 100 mg/kg; test compound IV
Procedure, shortened: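 Male CF-1 mice (18–22 g) received test compound IV in 1.0% Tween-80/0.1% HCl. LD50 was derived by Spearman-Karber (log dose interval 0.05, N=6), and activity was defined as LD50 elevation outside the control's 95% confidence interval.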

[3] = tested on: MDA formation; experiment: Malonyldialdehyde (MDA) Formation Assay (rat brain synaptosomes); type: biochemical; conditions: 10 min at 37°, pH 7.0; active = 50% or more at 200 μM or less
Description: Since lipid peroxidation is involved in the pathophysiology of center nervous system trauma, compounds which inhibit MDA formation are useful in treating the conditions listed below.
While not necessary to determine MDA formation, the above assays have been modified as follows: rat brain synaptosomes are prepared as described in the Example about the conjugated diene assay, except that the final wash of the synaptosomes and final suspension are in physiological (normal) saline in which the pH has been adjusted to 7.0. The synaptosomes are incubated for 10 min at 37° in physiological (normal) saline pH 7.0 (total volume=100 ul) containing; 10 ul synaptosomal suspension, 10% DMSO plus or minus drug, 150 uM Fe^+++ and 50 uM Fe++. The incubation is started by the rapid addition of iron to the otherwise complete reaction. The iron solutions are prepared fresh as ferric chloride and ferrous ammonium sulfate in argon-purged water. Following the 10 min incubation, the reaction is stopped by the addition of 500 ul ice-cold 12% trichloroacetic acid prepared in 0.5N hydrochloric acid. Water (300 ul) is then added along with 100 ul of freshly prepared thiobarbituric acid (3.3% in 0.5N sodium hydroxide) and 10 ul of 5 mM desferrioxamine. The sample is then heated in a boiling water bath for 20 minutes. The samples are cooled and centrifuged for 15 minutes at 1500×g and the absorbence of the supernatant fraction is read at 532 nm. The % inhibition of MDA formation is calculated by dividing the absorbance of sample containing drug by the absorbence of samples incubated without drug. Reaction blanks are samples incubated in the absence of iron. A compound that inhibits MDA formation by 50% or more at a concentration of 200 μM or less is considered "active".

[4] = tested on: AcylCoA:Cholesterol Acyltransferase (ACAT); experiment: AcylCoA:Cholesterol Acyltransferase (ACAT) Inhibition Assay; type: cell-based; parameters: key to inhibition of ACAT (activity in words): compounds which inhibit ACAT activity equal to, or greater than, that of chloropromazine are considered "active"; conditions: for inhibition of ACAT (activity in words): preferred Fu5AH cells, compared with chloropromazine
Source text: ACAT esterifies arterial cholesterol which is a key reaction in the development of atherosclerosis. The procedure of Bell, Can. […] In the ACAT assay it is preferred to use Fu5AH cells, see Lipids 9, 526 (1974). According to this procedure, compounds which inhibit ACAT activity equal to, or greater than, that of chloropromazine are considered "active".

[5] = tested on: mucous secretion; experiment: Inhibition of mucous secretion assay of Johnson; conditions: induced mucous secretions
Source text: According to this procedure compounds which inhibit or block enhancement of induced mucous secretions when tested are considered to be "active".

[6] = tested on: serum and arterial cholesterol in quail fed an atherogenic diet; experiment: Antiatherosclerosis Screen in Susceptible to Experimental Atherosclerosis (SEA) Japanese Quail; type: in vivo
Description: While not necessary, some minor modifications for extraction of cholesterol from the artery have been made. Time are as follows: frozen arteries are homogenized in hexane/isopropanol (3/2) and the volume adjusted with Triton 100 solution (1.5% in hexane/isopropanol) to 7 ml. After standing 12 hr at 20°-25°, the supernatant, obtained by low speed centrifugation is evaporated until dry and thru the residue is suspended in 0.5 ml of 5% Triton 100 in isopropanol. This suspension is incubated for 10 min at 45° to dissolve the material. This solution as well as the diluted serum samples are analyzed for cholesterol by standard clinical chemistry analyzer methods. According to the above procedure compounds which decrease serum or arterial cholesterol >30% are considered to be "active".

SMILES | % Increase in 1 hr Post-Injury Grip Test Scores After 3 mg/kg [1] [%] | inhibition of ACAT (activity in words) [4] | other results
CCN(CC)c1cc(N2CCN(CC(=O)[C@H]3CC[C@H]4[C@@H]5CCC6=CC(=O)CC[C@]6(C)[C@H]5[C@H](O)C[C@]34C)CC2)nc(N(CC)CC)n1.Cl.Cl [Example 69, 21-[4-[2,6-bis(diethylamino)-4-pyrimidinyl]-1-piperazinyl]-11α-hydroxypregn-4-ene-3,20-dione dihydrochloride] | 199.7 | – | –
CS(=O)(=O)O.C[C@@H]1C[C@H]2[C@@H]3CCC4=CC(=O)C=C[C@]4(C)C3=CC[C@]2(C)[C@H]1C(=O)CN1CCN(c2cc(N3CCCC3)nc(N3CCCC3)n2)CC1.O [Example 109, 16α-Methyl-21-[4-[2,6-bis(1-pyrrolidinyl)-4-pyrimidinyl]-1-piperazinyl]-pregna-1,4,9(11)-triene-3,20-dione-monomethanesulfonate monohydrate] | 184.4 | – | –
CCN(CC)c1nc(N2CCCCC2)cc(N2CCN(CC(=O)[C@@]3(O)CC[C@H]4[C@@H]5CCC6=CC(=O)CC[C@]6(C)C5=CC[C@@]43C)CC2)n1.Cl.O [Example 17, 17α-Hydroxy-21-[4-[2-(diethylamino)-6-(1-piperidinyl)-4-pyrimidinyl]-1-piperazinyl]pregna-4,9(11)-diene-3,20-dione hydrochloride hydrate] | – | active | % of Control LD50 100 mg/kg [2]: 150%; inhibition of MDA formation (activity in words) [3]: demonstrate such activity; % Inhibition of ACAT ([4]; 5 μg/ml): 32.2%
CCN(CC)c1cc(N2CCN(CC(=O)[C@@]3(O)CC[C@H]4[C@@H]5CCC6=CC(=O)CC[C@]6(C)[C@H]5[C@H](O)C[C@@]43C)CC2)nc(N(CC)CC)n1.Cl.Cl [Example 70, 21-[4-[2,6-bis(diethylamino)4-pyrimidinyl]-1-piperazinyl]-11α,17α-dihydroxypregn-4-ene-3,20-dione dihydrochloride] | 148.3 | – | –
CCN(CC)c1cc(N2CCN(CC(=O)[C@@]3(O)[C@H](C)C[C@H]4[C@@H]5CCC6=CC(=O)C=C[C@]6(C)C5=CC[C@@]43C)CC2)nc(N(CC)CC)n1.Cl.O [Example 18, 21-[4-[2,6-Bis(diethylamino)-4-pyrimidinyl]-1-piperazinyl]-17α-hydroxy-16α-methylpregna-1,4,9(11)-triene-3,20-dione hydrochloride hydrate] | – | active | inhibition of mucous secretion (activity in words) [5]: demonstrate such activity
CCNc1cccnc1N1CCN(CC(=O)[C@H]2[C@H](C)C[C@H]3[C@@H]4CCC5=CC(=O)C=C[C@]5(C)C4=CC[C@@]32C)CC1 [Example 127, 21-[4-[3-(Ethylamino)-2-pyridinyl]piperazinyl]-16α-methylpregna-1,4,9(11)-triene-3,20-dione hydrochloride] | 200.8 | – | –
C[C@]12CCC(=O)C=C1CC[C@@H]1C2=CC[C@@]2(C)[C@H]1CC[C@]2(O)C(=O)CN1CCN(c2ccccn2)CC1.Cl [Example 3, 17α-Hydroxy-21-[4-(2-pyridinyl)-1-piperazinyl]pregna-4,9(11)-diene-3,20-dione hydrogen chloride salt] | – | active | reduction of arterial cholesterol (in words) ([6]; artery): demonstrates reduction of serum and arterial cholesterol; reduction of serum cholesterol (in words) ([6]; serum): demonstrates reduction of serum and arterial cholesterol
